In patent publication US9833497B2, “Human originated EGF domain proteins and use of the same” (CHENGDU SOURCEBIO LIMITED-LIABILITY COMPANY, priority 2013, dated 2017):

Tests used:
Type in all cases: cell-based
[1] = test system: E. coli DH5α; test: Antibacterial activity: MIC and growth curve against E. coli DH5α in 96-well plate; conditions: minimal inhibitory concentration against E. coli DH5α; 96-well plate, 5×10^5 CFU/mL, 37° C., judged after 8 h
Summary of the method: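 Log-phase DH5α (OD600 about 0.5, 37° C, 185 rpm in LB) was pelleted, resuspended in fresh LB and seeded at 5×10^5 CFU/mL with recombinant protein at 50, 25 and 12.5 μg/mL (two-fold series), in triplicate. Plates were shaken at 175 rpm, 37° C, and OD600 was read every 30 min. MIC was the lowest concentration with no growth.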

[2] = test system: E. coli BL21; test: MIC against Gram-negative bacteria: E. coli BL21; conditions: E. coli BL21; 10 h cultivation at 37° C.; 5×10^5 CFU/mL
Summary of the method: (§1)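 Bacteria grown in LB at 37° C to McFarland 0.5, resuspended and seeded at 5×10^5 CFU/mL in 96-well plates. Purified human EGF-domain proteins two-fold serially diluted, triplicate wells; cultured at 37° C, shaking 175 rpm. MIC = lowest protein concentration with no growth.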

[3] = test system: Pseudomonas aeruginosa; test: MIC against Gram-negative bacteria: Pseudomonas aeruginosa; conditions: P. aeruginosa; 10 h cultivation at 37° C.; 5×10^5 CFU/mL
Summary of the method: as §1

[4] = test system: Klebsiella pneumonia; test: MIC against Gram-negative bacteria: Klebsiella pneumonia; conditions: K. pneumonia; 10 h cultivation at 37° C.; 5×10^5 CFU/mL
Summary of the method: as §1

[5] = test system: Enterobacter cloacae; test: MIC against Gram-negative bacteria: Enterobacter cloacae; conditions: E. cloacae; 10 h cultivation at 37° C.; 5×10^5 CFU/mL
Summary of the method: as §1

[6] = test system: Aeromonas hydrophila; test: MIC against Gram-negative bacteria: Aeromonas hydrophila; conditions: A. hydrophila; 10 h cultivation at 37° C.; 5×10^5 CFU/mL
Summary of the method: as §1

[7] = test system: Citrobacter diversus; test: MIC against Gram-negative bacteria: Citrobacter diversus; conditions: C. diversus; 10 h cultivation at 37° C.; 5×10^5 CFU/mL
Summary of the method: as §1

[8] = test system: Moraxella catarrhalis; test: MIC against Gram-negative bacteria: Moraxella catarrhalis; conditions: M. catarrhalis; 10 h cultivation at 37° C.; 5×10^5 CFU/mL
Summary of the method: as §1

[9] = test system: Proteus mirabilis; test: MIC against Gram-negative bacteria: Proteus mirabilis; conditions: P. mirabilis; 10 h cultivation at 37° C.; 5×10^5 CFU/mL
Summary of the method: as §1

[10] = test system: Proteus vulgaris; test: MIC against Gram-negative bacteria: Proteus vulgaris; conditions: P. vulgaris; 10 h cultivation at 37° C.; 5×10^5 CFU/mL
Summary of the method: as §1

[11] = test system: Serratia marcescens; test: MIC against Gram-negative bacteria: Serratia marcescens; conditions: S. marcescens; 10 h cultivation at 37° C.; 5×10^5 CFU/mL
Summary of the method: as §1

Row | Substance | MIC [1] | MIC (μg/mL) E. coli BL21 [2] | MIC (μg/mL) P. aeruginosa [3] | MIC (μg/mL) K. pneumonia [4] | MIC (μg/mL) E. cloacae [5] | MIC (μg/mL) A. hydrophila [6] | MIC (μg/mL) C. diversus [7] | MIC (μg/mL) M. catarrhalis [8] | MIC (μg/mL) P. mirabilis [9] | MIC (μg/mL) P. vulgaris [10] | MIC (μg/mL) S. marcescens [11]
1 | PRT252 (TAACTNTSCSGHGECVETINNYTCKCDPGFSGLKCE; listed as Homo sapiens) | 25 µg/mL | 12.5 µg/mL | 25 µg/mL | 12.5 µg/mL | 25 µg/mL | 12.5 µg/mL | 25 µg/mL | 12.5 µg/mL | 25 µg/mL | 12.5 µg/mL | 25 µg/mL
2 | PRT253 (DYCSQNTCLNGGKCSWTHGAGYVCKCPPQFSGKHCE; listed as Homo sapiens) | 12.5 µg/mL | 25 µg/mL | 12.5 µg/mL | 25 µg/mL | 12.5 µg/mL | 25 µg/mL | 12.5 µg/mL | 25 µg/mL | 12.5 µg/mL | 25 µg/mL | 12.5 µg/mL
3 | PRT254 (PCLEGGTCILSPKGASCNCPHPYTGDRCE; listed as Homo sapiens) | 25 µg/mL | 12.5 µg/mL | 12.5 µg/mL | 12.5 µg/mL | 12.5 µg/mL | 25 µg/mL | 12.5 µg/mL | 25 µg/mL | 12.5 µg/mL | 12.5 µg/mL | 12.5 µg/mL
4 | PRT255 (DVDECVGLQPVCPQGTTCINTGGSFQCVSPECPEG; listed as Homo sapiens) | 12.5 µg/mL | 12.5 µg/mL | 12.5 µg/mL | 12.5 µg/mL | 12.5 µg/mL | 25 µg/mL | 12.5 µg/mL | 25 µg/mL | 100 µg/mL | 25 µg/mL | 12.5 µg/mL
5 | PRT256 (CHLHARCVSQEGVARCRCLDGFEGDGFSC; listed as Homo sapiens) | 25 µg/mL | 12.5 µg/mL | 25 µg/mL | 12.5 µg/mL | 25 µg/mL | 12.5 µg/mL | 25 µg/mL | 12.5 µg/mL | 25 µg/mL | 12.5 µg/mL | 25 µg/mL
6 | PRT257 (CTDGHRGGCSEHANCLSTGLNTRRCECHAGYVGDGLQC; listed as Homo sapiens) | 12.5 µg/mL | 25 µg/mL | 12.5 µg/mL | 25 µg/mL | 12.5 µg/mL | 25 µg/mL | 12.5 µg/mL | 25 µg/mL | 12.5 µg/mL | 12.5 µg/mL | 12.5 µg/mL
7 | PRT258 (CSHPDRGGCSENAECVPGSLGTHHCTCHKGWSGDGRVC; listed as Homo sapiens) | 50 µg/mL | 12.5 µg/mL | 50 µg/mL | 12.5 µg/mL | 50 µg/mL | 12.5 µg/mL | 25 µg/mL | 12.5 µg/mL | 25 µg/mL | 50 µg/mL | 25 µg/mL
8 | PRT259 (GGCHTDALCSYVGPGQSRCTCKLGFAGDGYQC; listed as Homo sapiens) | 12.5 µg/mL | 25 µg/mL | 50 µg/mL | 12.5 µg/mL | 50 µg/mL | 12.5 µg/mL | 50 µg/mL | 12.5 µg/mL | 25 µg/mL | 50 µg/mL | 25 µg/mL
9 | PRT260 (CRAGNGGCHGLATCRAVGGGQRVCTCPPGFGGDGFSC; listed as Homo sapiens) | 12.5 µg/mL | 25 µg/mL | 50 µg/mL | 25 µg/mL | 12.5 µg/mL | 25 µg/mL | 50 µg/mL | 25 µg/mL | 12.5 µg/mL | 12.5 µg/mL | 12.5 µg/mL
10 | PRT261 (CAHGHGGCSPHANCTKVAPGQRTCTCQDGYMGDGELC; listed as Homo sapiens) | 12.5 µg/mL | 12.5 µg/mL | 12.5 µg/mL | 12.5 µg/mL | 50 µg/mL | 12.5 µg/mL | 25 µg/mL | 50 µg/mL | 25 µg/mL | 12.5 µg/mL | 50 µg/mL
11 | PRT262 (CLIHHGGCHIHAECIPTGPQQVSCSCREGYSGDGIRTC; listed as Homo sapiens) | 12.5 µg/mL | 25 µg/mL | 50 µg/mL | 25 µg/mL | 12.5 µg/mL | 25 µg/mL | 50 µg/mL | 25 µg/mL | 12.5 µg/mL | 25 µg/mL | 12.5 µg/mL
12 | PRT263 (CSKNNGGCSPYATCKSTGDGQRTCTCDTAHTVGDGLTC; listed as Homo sapiens) | 25 µg/mL | 25 µg/mL | 12.5 µg/mL | 25 µg/mL | 12.5 µg/mL | 25 µg/mL | 12.5 µg/mL | 12.5 µg/mL | 12.5 µg/mL | 12.5 µg/mL | 50 µg/mL
13 | PRT264 (SGQCLCRSGFAGTACELCAPGAFGPHCQAC; listed as Homo sapiens) | 12.5 µg/mL | 50 µg/mL | 12.5 µg/mL | 50 µg/mL | 12.5 µg/mL | 25 µg/mL | 50 µg/mL | 25 µg/mL | 12.5 µg/mL | 25 µg/mL | 12.5 µg/mL
